One series concerns NASH. As to the kind of experiment: clinical trial in patients with moderately severe NASH. To be noted: subcutaneous delivery, monotherapy. It counts as in vivo, human.
The test system of a further series is CCl4-exposed rats. To be noted: cited from earlier work.
Another series relates to HSC. To be noted: cited from earlier work.
The next series deals with liver. The following applies: cited from earlier work.
A further series concerns tumor cell. The following applies: in vitro or in vivo studies; cited from earlier work.
Series [1] has as its system progressive pulmonary fibrosis. To be noted: patients with idiopathic pulmonary fibrosis, scleroderma or sarcoidosis resistant to three months of high-dose glucocorticoids; cited from earlier work.
The test system of a further series is lung fibroblasts. To be noted: in vitro; cited from earlier work.
In another series the test system is gene for TGF-β1. To be noted: bleomycin-induced model of lung fibrosis, exogenous interferon-γ; cited from earlier work.
Series [2] has as its system rat model of hypertension. The following applies: cited from earlier work.
Series [3] has as its system hepatic stellate cells (HSCs). To be noted: rat CCl4 model of liver damage; cited from earlier work.
The conditions of series [4]: human, in vivo; cited from earlier work.

Procedure for NASH: The dosage and delivery mechanism for relaxin H2 is subcutaneous delivery of the molecule based on the earlier reports for the scleroderma trial. […] The dosage of relaxin H2 in the present trial is the most efficacious level that was used in the earlier reported scleroderma trial, a subcutaneous relaxin infusion rate of 25 μg/kg/day, with the mode of delivery via continuous subcutaneous delivery (e.g., through implantation of an osmotic pump). The simultaneous dosage of follistatin will be 50 μg/kg/day through subcutaneous delivery.
A formulation comprised of rH2 relaxin and recombinant human follistatin 315 is used to improve prognosis and decrease on-going damage caused from on-going hepatic damage in patients diagnosed with moderately severe NASH. The measured end points are indicative of a decrease of reduction of area of damage in the liver and increased liver enzyme function. […]
rH2 relaxin and follistatin administration are studied in a small patient population of NASH and an improvement in liver enzyme levels and liver function is measured as a primary end point. A decrease in on-going damage as determined by imaging techniques is also measured. […] In addition, elements such as diet and exercise are carefully monitored in the trial populations as these may impact on the improvement of the underlying metabolic disorder and potentially skew the results.

On to follistatin, for which the “improvement versus vehicle (liver enzyme levels, liver function)” value with NASH is on record as “significant improvement over those treated with vehicle”. The reduction in fibrosis with CCl4-exposed rats (CCl4-exposed rats treated with the peptide) is recorded as 32%. In addition, the “decrease of hepatocyte apoptosis” value with CCl4-exposed rats (CCl4-exposed rats, during treatment, effect maximal at week 4) is listed as 87%. Also, the “TGF-β-induced secretion of collagen” value in the series on HSC is on record as “inhibit TGF-β-induced secretion of collagen from HSC”. For the same substance, the liver weight entry with liver (after hepatic resection) was “significantly increases liver weight”. Further, the “cell replication and liver size” value with liver (following partial hepatectomy) was “actively promote cell replication and increase liver size”. In the series with tumor cell, the tumor cell growth entry is on record as “did not accelerate tumor cell growth”.
interferon γ-1b: the “clinical efficacy in progressive pulmonary fibrosis” value in [1] was “effective”.
On to interferon-γ, for which, in the series on lung fibroblasts, the “proliferation of lung fibroblasts” value is reported as “inhibits the proliferation of lung fibroblasts in a dose-dependent manner” and the “synthesis of protein in fibroblasts” value is “reduces the synthesis of protein in fibroblasts”. Besides, the “transcription of the gene for TGF-β1” value with gene for TGF-β1 was “down-regulated”.
relaxin: in the series with NASH, the “improvement versus vehicle (liver enzyme levels, liver function)” value was “significant improvement over those treated with vehicle”. In addition, the “fibrosis associated with organ damage” value in series [2] was “reversing cardiac and renal fibrosis”. In series [3], the “collagen deposition by hepatic stellate cells” value is “inhibit collagen deposition by hepatic stellate cells”. In addition, the adverse events result in [4] was “few adverse events”.

Source of the values: patent US20080045609A1, “METHODS AND THERAPEUTICS TO FACILITATE LIVER REPAIR” (priority 2006, published 2008).
